According to the supplement of paper PMC11451515:

Columns and labels:
Assay in all cases: AUC of viability dose-response curve (% viability x log10 dose units); higher = less sensitive
Settings in all cases: 48 h
[1] = test system: NOMO1
Summary of the method: (§1)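 Medium-adapted leukemia cells in 1536-well plates, at 500 or 1000 cells/well, were incubated for 48 h at 37°C with library compounds in DMSO at 11 threefold doses from 47 μM to 0.79 nM. CellTiter-Glo One luminescence normalised per plate to DMSO and cell-free wells was fitted with a four-parameter log-logistic model over log10 doses. Area under the curve was integrated from this fit by trapezoidal rule, with curves beyond full viability scaled and failed quality-control curves removed.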

[2] = test system: SEM cells
Summary of the method: as §1

[3] = test system: P12-Ichikawa
Summary of the method: as §1

[4] = RPMI 5 mM glucose + 10% dialyzed FBS

Structure (SMILES) | AUC of viability dose-response curve ([1]; HPLM + 10% dialyzed FBS) | AUC of viability dose-response curve ([1]; RPMI 5 mM glucose + 10% FBS) | AUC of viability dose-response curve [1, 4] | AUC of viability dose-response curve ([2]; HPLM + 10% dialyzed FBS) | AUC of viability dose-response curve ([2]; RPMI 5 mM glucose + 10% FBS) | AUC of viability dose-response curve [2, 4] | AUC of viability dose-response curve ([3]; HPLM + 10% dialyzed FBS) | AUC of viability dose-response curve ([3]; RPMI 5 mM glucose + 10% FBS) | AUC of viability dose-response curve [3, 4]
Cc1ccc(NC(=O)c2ccc(CN3CCN(C)CC3)cc2)cc1Nc1nccc(-c2cccnc2)n1 | 477 | 459 | 454 | 465 | 468 | 467 | 460 | 470 | 477
Cc1cc(Nc2ncc(Cl)c(Nc3ccccc3[S+](=O)([O-])C(C)C)n2)c(OC(C)C)cc1C1CCNCC1 | 396 | 395 | 395 | 380 | 393 | 392 | 449 | 425 | 442
CCCCN(CCCC)CCC(O)c1cc2c(Cl)cc(Cl)cc2c2cc(C(F)(F)F)ccc12 (stereo not given) | 453 | 459 | 471 | 442 | 408 | 415 | 466 | 459 | 452
Clc1cccc(-c2nnnn2Cc2cccnc2)c1Cl | 362 | 365 | 357 | 359 | 348 | 375 | 397 | 385 | 382
Fc1cc(-c2cccc3ncc(-c4cnn(C5CCNCC5)c4)nc23)cc(F)c1CN1CCOCC1 | 378 | 409 | 412 | 379 | 378 | 385 | 407 | 423 | 412
COc1cc(N2CCC(C(N)=O)CC2)ccc1Nc1nc(N)c(Cl)c(Nc2ccccc2[S+](=O)([O-])C(C)C)n1 | 381 | 393 | 372 | 360 | 375 | 350 | 445 | 421 | 410
CCNC(=O)C[C@@H]1\N=C(C2=CC=C(Cl)C=C2)/C3=C(C=CC(=C3)OC)[N]4C(=NN=C14)C | 373 | 392 | 388 | 311 | 299 | 303 | 395 | 396 | 388
Nc1nc(-c2nn(Cc3ccccc3F)c3ncccc23)nc(N)c1N1CCOCC1 | 461 | 458 | 467 | 462 | 458 | 467 | 469 | 463 | 473
COC1=CC=C2Nc3cc(Cl)ccc3C(N=C3C=C(CN4CCCC4)C(=O)C(CN4CCCC4)=C3)=C2N1 | 472 | 459 | 475 | 435 | 449 | 437 | 472 | 468 | 469
Clc1ccc(C2(c3ccc(-c4cn[nH]c4)cc3)CCNCC2)cc1 | 427 | 389 | 395 | 384 | 445 | 388 | 419 | 369 | 390
